Measured values from patent US20250213555A1, “SUBSTITUTED TETRAHYDROFURAN ANALOGS AS MODULATORS OF SODIUM CHANNELS” (VERTEX PHARMACEUTICALS INCORPORATED, priority 2021, published 2025).

biological target: human Nav 1.8 (Homo sapiens, UniProt Q9Y5Y9); assay: E-VIPR assay detecting and measuring Nav inhibition properties; assay type: cell-based; settings: HEK cells expressing a truncated form of human Nav 1.8; compound numbers without "*" (not marked as run in the presence of human serum); read-out: measured IC50 value in the E-VIPR Assay
Sequence (Q9Y5Y9 126-399 limits assumed): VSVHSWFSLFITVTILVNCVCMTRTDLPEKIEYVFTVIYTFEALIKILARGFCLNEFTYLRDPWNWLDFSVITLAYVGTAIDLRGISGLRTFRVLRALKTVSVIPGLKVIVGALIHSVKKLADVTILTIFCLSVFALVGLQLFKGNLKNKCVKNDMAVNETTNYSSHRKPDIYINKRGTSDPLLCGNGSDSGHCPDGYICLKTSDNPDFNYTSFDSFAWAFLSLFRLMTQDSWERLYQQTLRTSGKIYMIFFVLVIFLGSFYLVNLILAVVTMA
Sequence (Q9Y5Y9 660-890 limits assumed): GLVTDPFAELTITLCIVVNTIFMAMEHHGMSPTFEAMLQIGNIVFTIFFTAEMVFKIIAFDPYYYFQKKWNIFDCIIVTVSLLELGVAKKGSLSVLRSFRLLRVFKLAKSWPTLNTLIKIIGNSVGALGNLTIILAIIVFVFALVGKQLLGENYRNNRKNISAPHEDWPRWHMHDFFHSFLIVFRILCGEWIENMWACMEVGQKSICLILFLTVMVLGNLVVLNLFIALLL
Sequence (Q9Y5Y9 1148-1722 limits assumed): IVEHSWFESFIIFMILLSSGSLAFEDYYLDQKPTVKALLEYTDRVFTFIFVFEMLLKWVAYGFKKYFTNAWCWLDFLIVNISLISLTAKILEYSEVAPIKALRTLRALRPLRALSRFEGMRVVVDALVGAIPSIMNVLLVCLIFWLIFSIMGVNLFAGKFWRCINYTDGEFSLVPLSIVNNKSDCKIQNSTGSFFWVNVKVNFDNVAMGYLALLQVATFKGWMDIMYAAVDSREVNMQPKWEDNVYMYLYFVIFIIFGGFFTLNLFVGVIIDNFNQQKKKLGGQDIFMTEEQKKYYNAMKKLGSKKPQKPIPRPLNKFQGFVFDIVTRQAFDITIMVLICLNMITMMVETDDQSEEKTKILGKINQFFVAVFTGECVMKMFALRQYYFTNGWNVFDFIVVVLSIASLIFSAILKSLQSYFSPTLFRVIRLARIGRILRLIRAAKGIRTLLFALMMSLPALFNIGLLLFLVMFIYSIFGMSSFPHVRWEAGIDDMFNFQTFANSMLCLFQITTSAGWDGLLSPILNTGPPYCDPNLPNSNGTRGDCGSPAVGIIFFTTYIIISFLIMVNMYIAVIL
In short: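 Nav inhibition was read by E-VIPR: cells were electrically stimulated while coumarin/oxonol FRET emissions were recorded. Cells were HEK expressing a truncated human Nav 1.8 and co-transduced with KIR2.1, and were assayed in 25% final human serum.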

IC50 [nM] | Compound
< 10 | C[C@H]1[C@@H](c2ccc(F)c(F)c2OCCN2CCOC3CC32)[C@H](C(=O)Nc2ccnc(C(N)=O)c2)O[C@@]1(C)C(F)(F)F (stereo partly drawn) [Compound 50, 4-((2R,3S,4S,5R)-3-(2-(2-(2-oxa-5-azabicyclo[4.1.0]heptan-5-yl)ethoxy)-3,4-difluorophenyl)-4,5-dimethyl-5-(trifluoromethyl)tetrahydrofuran-2-carboxamido)picolinamide]
10 to 100 | CO[C@H](CO)COc1c([C@H]2[C@H](C(=O)Nc3ccnc(C(N)=O)c3)O[C@@](C)(C(F)(F)F)[C@H]2C)ccc(F)c1F (single isomer, unassigned) [Compound 161, rel-4-((2R*,3S*,4S*,5R*)-3-(3,4-difluoro-2-(3-hydroxy-2-methoxypropoxy)phenyl)-4,5-dimethyl-5-(trifluoromethyl)tetrahydrofuran-2-carboxamido)picolinamide]
< 10 | C[C@H]1[C@@H](c2ccc(F)c(F)c2OCC#N)[C@H](C(=O)Nc2ccnc(C(N)=O)c2)O[C@@]1(C)C(F)(F)F [Compound 69, 4-((2R,3S,4S,5R)-3-(2-(cyanomethoxy)-3,4-difluorophenyl)-4,5-dimethyl-5-(trifluoromethyl)tetrahydrofuran-2-carboxamido)picolinamide]
< 10 | COc1c([C@H]2[C@H](C(=O)Nc3ccnc(C(=O)N4C[C@@H](F)[C@@H](N)C4)c3)O[C@@](C)(C(F)(F)F)[C@H]2C)ccc(F)c1F [Compound 255, (2R,3S,4S,5R)-N-(2-((3S,4R)-3-amino-4-fluoropyrrolidine-1-carbonyl)pyridin-4-yl)-3-(3,4-difluoro-2-methoxyphenyl)-4,5-dimethyl-5-(trifluoromethyl)tetrahydrofuran-2-carboxamide]
< 10 | COCc1c([C@H]2[C@H](C(=O)Nc3ccnc(C(N)=O)c3)O[C@@](C)(C(F)(F)F)[C@H]2C)ccc(F)c1F (racemic) [Compound 145, rac-4-((2R,3S,4S,5R)-3-(3,4-difluoro-2-(methoxymethyl)phenyl)-4,5-dimethyl-5-(trifluoromethyl)tetrahydrofuran-2-carboxamido)picolinamide]
10 to 100 | C[C@H]1[C@@H](c2ccc(F)c(F)c2OCCN[C@@H]2CCOC2)[C@H](C(=O)Nc2ccnc(C(N)=O)c2)O[C@@]1(C)C(F)(F)F [Compound 116, 4-((2R,3S,4S,5R)-3-(3,4-difluoro-2-(2-(((R)-tetrahydrofuran-3-yl)amino)ethoxy)phenyl)-4,5-dimethyl-5-(trifluoromethyl)tetrahydrofuran-2-carboxamido)picolinamide]
10 to 100 | C[C@@H](O)COc1c([C@H]2[C@H](C(=O)Nc3ccnc(C(N)=O)c3)O[C@@](C)(C(F)(F)F)[C@H]2C)ccc(F)c1F [Compound 152, 4-((2R,3S,4S,5R)-3-(3,4-difluoro-2-((R)-2-hydroxypropoxy)phenyl)-4,5-dimethyl-5-(trifluoromethyl)tetrahydrofuran-2-carboxamido) picolinamide]
10 to 100 | COc1c([C@H]2[C@H](C(=O)Nc3ccnc(C(=O)N[C@H]4CCN(C)C4)c3)O[C@@](C)(C(F)(F)F)[C@H]2C)ccc(F)c1F [Compound 277, 4-((2R,3S,4S,5R)-3-(3,4-difluoro-2-methoxyphenyl)-4,5-dimethyl-5-(trifluoromethyl)tetrahydrofuran-2-carboxamido)-N-((S)-1-methylpyrrolidin-3-yl)picolinamide]
10 to 100 | CNC(=O)c1cc(NC(=O)[C@@H]2O[C@@](C)(C(F)(F)F)[C@@H](C)[C@H]2c2ccc(F)c(F)c2O[C@H]2C[C@@H](O)C2)ccn1 [Compound 201]
< 10 | C[C@H]1[C@@H](c2ccc(F)c(F)c2OC2CCC(O)C2)[C@H](C(=O)Nc2ccnc(C(N)=O)c2)O[C@@]1(C)C(F)(F)F (stereo partly drawn) [Compound 175, 4-((2R,3S,4S,5R)-3-(3,4-difluoro-2-((3-hydroxycyclopentyl)oxy)phenyl)-4,5-dimethyl-5-(trifluoromethyl)tetrahydrofuran-2-carboxamido)picolinamide]
10 to 100 | COc1c([C@H]2[C@H](C(=O)Nc3cccc(C(=O)N4CCNCC4)n3)O[C@@](C)(C(F)(F)F)[C@H]2C)ccc(F)c1F [Compound 17, (2R,3S,4S,5R)-3-(3,4-difluoro-2-methoxyphenyl)-4,5-dimethyl-N-(6-(piperazine-1-carbonyl)pyridin-2-yl)-5-(trifluoromethyl)tetrahydrofuran-2-carboxamide]
< 10 | C[C@H](O)COc1c([C@H]2[C@H](C(=O)Nc3ccnc(C(N)=O)c3)O[C@@](C)(C(F)(F)F)[C@H]2C)ccc(F)c1F [Compound 153]
< 10 | COc1c([C@H]2[C@H](C(=O)Nc3ccnc(C(=O)N4C[C@H](OC)[C@@H](N)C4)c3)O[C@@](C)(C(F)(F)F)[C@H]2C)ccc(F)c1F [Compound 262, (2R,3S,4S,5R)-N-(2-((3S,4S)-3-amino-4-methoxypyrrolidine-1-carbonyl)pyridin-4-yl)-3-(3,4-difluoro-2-methoxyphenyl)-4,5-dimethyl-5-(trifluoromethyl)tetrahydrofuran-2-carboxamide]
< 10 | COc1c([C@H]2[C@H](C(=O)Nc3ccnc(C(=O)N4CC[C@@H](O)C4)c3)O[C@@](C)(C(F)(F)F)[C@H]2C)ccc(F)c1F [Compound 220, (2R,3S,4S,5R)-3-(3,4-difluoro-2-methoxyphenyl)-N-(2-((R)-3-hydroxypyrrolidine-1-carbonyl)pyridin-4-yl)-4,5-dimethyl-5-(trifluoromethyl)tetrahydrofuran-2-carboxamide]
< 10 | CC1CN(CCOc2c([C@H]3[C@H](C(=O)Nc4ccnc(C(N)=O)c4)O[C@@](C)(C(F)(F)F)[C@H]3C)ccc(F)c2F)CCO1 (stereo partly drawn) [Compound 51, 4-((2R,3S,4S,5R)-3-(3,4-difluoro-2-(2-(2-methylmorpholino)ethoxy)phenyl)-4,5-dimethyl-5-(trifluoromethyl)tetrahydrofuran-2-carboxamido)picolinamide]
10 to 100 | COc1c([C@H]2[C@H](C(=O)Nc3ccnc(C(=O)N4C[C@H]5C[C@@H]4CN5C)c3)O[C@@](C)(C(F)(F)F)[C@H]2C)ccc(F)c1F [Compound 279, (2R,3S,4S,5R)-3-(3,4-difluoro-2-methoxyphenyl)-4,5-dimethyl-N-(2-((1R,4R)-5-methyl-2,5-diazabicyclo[2.2.1]heptane-2-carbonyl)pyridin-4-yl)-5-(trifluoromethyl)tetrahydrofuran-2-carboxamide]
10 to 100 | C[C@]1(C(F)(F)F)C[C@@H](c2ccc(F)c(F)c2OCCO)[C@H](C(=O)Nc2ccnc(C(N)=O)c2)O1 (relative stereo) [Compound 33, rel-4-((2R,3S,5R)-3-(3,4-difluoro-2-(2-hydroxyethoxy)phenyl)-5-methyl-5-(trifluoromethyl)tetrahydrofuran-2-carboxamido)picolinamide]
100 to 1000 | COc1c([C@H]2[C@H](C(=O)Nc3ccnc(C(=O)N[C@H]4C[C@@H](C)CN(C)C4)c3)O[C@@](C)(C(F)(F)F)[C@H]2C)ccc(F)c1F [Compound 290, 4-((2R,3S,4S,5R)-3-(3,4-difluoro-2-methoxyphenyl)-4,5-dimethyl-5-(trifluoromethyl)tetrahydrofuran-2-carboxamido)-N-((3S,5R)-1,5-dimethylpiperidin-3-yl)picolinamide]
< 10 | COc1c([C@H]2[C@H](C(=O)Nc3ccnc(C(=O)N4CC[C@H](O)C4)c3)O[C@@](C)(C(F)(F)F)[C@H]2C)ccc(F)c1F [Compound 219, (2R,3S,4S,5R)-3-(3,4-difluoro-2-methoxyphenyl)-N-(2-((S)-3-hydroxypyrrolidine-1-carbonyl)pyridin-4-yl)-4,5-dimethyl-5-(trifluoromethyl)tetrahydrofuran-2-carboxamide]
< 10 | COc1c([C@H]2[C@H](C(=O)Nc3ccnc(C(=O)N4CC5(CCN5)C4)c3)O[C@@](C)(C(F)(F)F)[C@H]2C)ccc(F)c1F [Compound 215, (2R,3S,4S,5R)—N-(2-(1,6-diazaspiro[3.3]heptane-6-carbonyl)pyridin-4-yl)-3-(3,4-difluoro-2-methoxyphenyl)-4,5-dimethyl-5-(trifluoromethyl)tetrahydrofuran-2-carboxamide]
100 to 1000 | COc1c([C@H]2[C@H](C(=O)Nc3cc(C(=O)N4CCN(C)CC4)ccn3)O[C@@](C)(C(F)(F)F)[C@H]2C)ccc(F)c1F [Compound 14, (2R,3S,4S,5R)-3-(3,4-difluoro-2-methoxyphenyl)-4,5-dimethyl-N-(4-(4-methylpiperazine-1-carbonyl)pyridin-2-yl)-5-(trifluoromethyl)tetrahydrofuran-2-carboxamide]

Compound | IC50 [nM]
C[C@H]1[C@@H](c2ccc(F)c(F)c2OCCN2CC3CC(C2)O3)[C@H](C(=O)Nc2ccnc(C(N)=O)c2)O[C@@]1(C)C(F)(F)F [Compound 110, 4-((2R,3S,4S,5R)-3-(2-(2-(6-oxa-3-azabicyclo[3.1.1]heptan-3-yl)ethoxy)-3,4-difluorophenyl)-4,5-dimethyl-5-(trifluoromethyl)tetrahydrofuran-2-carboxamido)picolinamide] | < 10
COc1c([C@H]2[C@H](C(=O)Nc3cc(C(N)=O)ncc3[Si](C)(C)C)O[C@@](C)(C(F)(F)F)[C@H]2C)ccc(F)c1F [Compound 23, 4-((2R,3S,4S,5R)-3-(3,4-difluoro-2-methoxyphenyl)-4,5-dimethyl-5-(trifluoromethyl)tetrahydrofuran-2-carboxamido)-5-(trimethylsilyl)picolinamide] | 100 to 1000
C[C@H]1[C@@H](c2ccc(F)c(F)c2OC2CC(F)(F)C2)[C@H](C(=O)Nc2ccnc(C(N)=O)c2)O[C@@]1(C)C(F)(F)F [Compound 173, 4-((2R,3S,4S,5R)-3-(2-(3,3-difluorocyclobutoxy)-3,4-difluorophenyl)-4,5-dimethyl-5-(trifluoromethyl)tetrahydrofuran-2-carboxamido)picolinamide] | < 10
C[C@H]1[C@@H](c2ccc(F)c(F)c2OCCC(C)(C)C#N)[C@H](C(=O)Nc2ccnc(C(N)=O)c2)O[C@@]1(C)C(F)(F)F [Compound 74, 4-((2R,3S,4S,5R)-3-(2-(3-cyano-3-methylbutoxy)-3,4-difluorophenyl)-4,5-dimethyl-5-(trifluoromethyl)tetrahydrofuran-2-carboxamido)picolinamide] | 10 to 100
